We go through 34 compounds from ChEMBL document CHEMBL4837257, “Discovery of the Oxadiazine FRM-024: A Potent CNS-Penetrant Gamma Secretase Modulator” (J Med Chem, 2021).

Data set [1] is described as follows: Ratio of free drug concentration in mouse brain to EC90 for modulation of gamma secretase in human H4 cells expressing human wild type APP751 assessed as reduction in amyloid beta42 level incubated overnight by ELISA. Type of data set: ADME, cell-based.
A short description of data set [2]: Ratio of free drug concentration in rat brain to EC90 for modulation of gamma secretase in human H4 cells expressing human wild type APP751 assessed as reduction in amyloid beta42 level incubated overnight by ELISA. Type of data set: ADME, cell-based. Background: An ELISA detects its analyte on a solid surface through an enzyme-linked reagent.
For data set [3], the system named is Rattus norvegicus. Description: In vivo modulation of gamma secretase in rat assessed as reduction in Abeta42 levels in brain at 30 mg/kg, po measured after 6 hrs by ELISA relative to control. The format is functional. Also noted: scale not given: the % may be the effect or the level left.
In data set [4] the target is Gamma-secretase (Homo sapiens) (UniProt Q96BI3+Q9NZ42+Q8WW43+P49768+Q92542+P49810). The data set can be described thus: (§1) Modulation of gamma-secretase in human H4 cells expressing human wild type APP751 assessed as reduction in amyloid beta42 level incubated overnight by ELISA. The conditions noted are these: filed as modulator. The format is cell-based.
The next data set deals with Gamma-secretase. The description is as §1. Type of data set: cell-based.
The nature of data set [5]: Unbound clearance in human hepatocytes. Type of data set: ADME, cell-based, Hepatocyte.
Another data set has as its system Mus musculus. Description: In vivo modulation of gamma secretase in mouse assessed as reduction in Abeta42 levels in brain at 30 mg/kg, po measured after 6 hrs relative to control. Type of data set: functional. Also noted: scale not given: the % may be the effect or the level left.
The test system of data set [6] is Rattus norvegicus. Description: In vivo modulation of gamma secretase in rat assessed as reduction in Abeta42 levels in CSF at 30 mg/kg, po measured after 6 hrs by ELISA relative to control. Type of data set: functional, Cerebrospinal fluid. Also noted: scale not given: the % may be the effect or the level left.

One may read the EC90 as the concentration needed for an effect of 90%. What is called EC50 is the concentration needed to bring the measured effect to its halfway point.

For `COc1nc(C2=NOC(C)C(c3ccc(Cl)cc3)N2)ccc1-n1cnc(C)c1` (stereo not given), the values for the Ratio in data set [1] and in data set [2] were 4.5 and 0.3, respectively. Besides, the Activity in the data set with Rattus norvegicus [3] was 41%; with Mus musculus, 47%; in the data set on Rattus norvegicus [6] it was 84%. In addition, the 90% effect concentration (EC90) in data set [4] is 187 nM. In addition, the EC50 at Gamma-secretase worked out at 16 nM. Moreover, the CL free in data set [5] amounted to 12 mL/min/kg.

`COc1nc(C2=NOCC(c3ccc(Cl)c(C4CC4)c3)N2)ccc1-n1cnc(C)c1` (stereo not given): the EC50 on Gamma-secretase amounted to 13 nM. Also, in data set [5], the CL free was 274 mL/min/kg.

Consider `COc1nc(C2=NOCC(c3ccc(F)c(C(F)(F)F)c3)N2)ccc1-n1cnc(C)c1` (stereo not given), for which the Ratio in data set [1] was determined as 0.7. Further, the 90% effect concentration (EC90) in data set [4] was 268 nM. Further, the EC50 on Gamma-secretase was found to be 19 nM. Besides, in the data set with Mus musculus, the Activity is given as 41%.

Take `COc1nc(C2=NOCC(c3cc(Cl)cc(Cl)c3)N2)ccc1-n1cnc(C)c1` (stereo not given): in data set [1], the Ratio is reported as 0.8. Also, in data set [4], the EC90 was 104 nM. Further, at Gamma-secretase, the EC50 was 10 nM. Further, the CL free in data set [5] was found to be 85 mL/min/kg. Besides, the Activity in the data set on Mus musculus is on record as 23%.

Take `COc1ccc(C2CON=C(c3ccc(-n4cnc(C)c4)c(OC)n3)N2)cc1` (stereo not given): at Gamma-secretase, the 50% effective concentration (EC50) was determined as 97 nM.

In the case of `COc1nc(C2=NOCC(c3ccc(C#N)cc3)N2)ccc1-n1cnc(C)c1` (stereo not given), the concentration giving a half-maximal response (EC50) at Gamma-secretase stood at 450 nM.

In the case of `COc1nc(C2=NOCC(c3cccc(Cl)c3)N2)ccc1-n1cnc(C)c1` (stereo not given), the EC50 at Gamma-secretase was found to be 26 nM. Also, in data set [5], the CL free amounted to 15 mL/min/kg.

With `COc1nc(C2=NOCC(c3ccc(Cl)c(F)c3)N2)ccc1-n1cnc(C)c1` (stereo not given), the Ratio in data set [1] came to 1.7. Further, the concentration for an effect of 90% (EC90) in data set [4] amounted to 246 nM. At Gamma-secretase, the EC50 came out at 23 nM. Further, the CL free in data set [5] is 32 mL/min/kg. Further, in the data set on Mus musculus, the Activity came to 28%.

Consider `COc1nc(C2=NOC(C)(C)C(c3ccccc3)N2)ccc1-n1cnc(C)c1` (stereo not given), for which the 50% effective concentration (EC50) at Gamma-secretase was 75 nM. This compound also yielded a CL free in data set [5] of 5 mL/min/kg.

With `COc1nc(C2=NOCC(c3ccc(Cl)c(C(F)(F)F)c3)N2)ccc1-n1cnc(C)c1` (stereo not given), the concentration for a half-maximal effect (EC50) at Gamma-secretase was 8 nM. Further, the CL free in data set [5] was 6 mL/min/kg.

Take `COc1nc(C2=NOCC(c3ccc(F)c(Cl)c3)N2)ccc1-n1cnc(C)c1` (stereo not given): in data set [1], the Ratio is listed as 1.5. For the same compound, in data set [4], the EC90 came to 278 nM. On Gamma-secretase, the EC50 is 23 nM. The CL free in data set [5] was 13 mL/min/kg. For the same compound, in the data set with Mus musculus, the Activity came to 30%.

`COc1nc(C2=NOCC(c3ccc(C4CC4)cc3)N2)ccc1-n1cnc(C)c1` (stereo not given): at Gamma-secretase, the EC50 turned out to be 39 nM. In addition, the CL free in data set [5] is 208 mL/min/kg.

For the compound `COc1nc(C2=NOCC(c3ccc(F)cc3)N2)ccc1-n1cnc(C)c1` (stereo not given), the EC50 at Gamma-secretase was determined as 60 nM.

`COc1nc(C2=NOCC(c3ccc(Cl)c(C)c3)N2)ccc1-n1cnc(C)c1` (stereo not given): the Ratio in data set [1] stood at 1.3. Also, the concentration for an effect of 90% (EC90) in data set [4] was determined as 127 nM. Besides, the 50% effective concentration (EC50) at Gamma-secretase worked out at 10 nM. The compound further came in with a CL free in data set [5] of 70 mL/min/kg. In addition, the Activity with Mus musculus was 30%.

As to `COc1nc(C2=NOC(C)(C)C(c3ccc(Cl)cc3)N2)ccc1-n1cnc(C)c1` (stereo not given), the EC50 on Gamma-secretase was found to be 23 nM. In data set [5], this compound returned a CL free of 15 mL/min/kg.

`COc1cccc(C2CON=C(c3ccc(-n4cnc(C)c4)c(OC)n3)N2)c1` (stereo not given): the EC50 at Gamma-secretase was found to be 197 nM.

With `COc1nc(C2=NOC(C)C(c3cccc(Cl)c3)N2)ccc1-n1cnc(C)c1` (stereo not given), on Gamma-secretase, the concentration giving a half-maximal response (EC50) turned out to be 14 nM. In data set [5], this compound registered a CL free of 19 mL/min/kg.

Regarding `COc1nc(C2=NOCC(c3ccc(C)cc3)N2)ccc1-n1cnc(C)c1` (stereo not given), the EC50 at Gamma-secretase amounted to 74 nM. The CL free in data set [5] came to 135 mL/min/kg.

On to `COc1nc(C2=NOCC(c3ccc(C4CC4)c(Cl)c3)N2)ccc1-n1cnc(C)c1` (stereo not given), for which the half-maximal effective concentration (EC50) at Gamma-secretase was 13 nM. The same compound gave a CL free in data set [5] of 1147 mL/min/kg.

With `COc1nc(C2=NOCC(c3cccc(C(F)(F)F)c3)N2)ccc1-n1cnc(C)c1` (stereo not given), the concentration for a half-maximal effect (EC50) on Gamma-secretase was 43 nM.

In the case of `COc1nc(C2=NOCC(c3ccc(C(F)(F)F)c(Cl)c3)N2)ccc1-n1cnc(C)c1` (stereo not given), on Gamma-secretase, the half-maximal effective concentration (EC50) worked out at 10 nM.

As to `COc1nc(C2=NOCC(c3ccc(C)c(Cl)c3)N2)ccc1-n1cnc(C)c1` (stereo not given), at Gamma-secretase, the EC50 was 14 nM. In data set [5], the CL free worked out at 422 mL/min/kg.

Turning to `COc1nc(C2=NOC[C@H](c3cc4ccccc4o3)N2)ccc1-n1cnc(C)c1`, the Ratio in data set [1] is 1.1; in data set [2] it was 0.7. The Activity was determined as 30% in the data set on Rattus norvegicus [3], 43% with Mus musculus and 58% with Rattus norvegicus [6]. For the same compound, the concentration for an effect of 90% (EC90) in data set [4] came out at 383 nM. Besides, the EC50 at Gamma-secretase stood at 35 nM. The CL free in data set [5] came out at 51 mL/min/kg.

`COc1nc(C2=NOC(C)C(c3ccc(Cl)c(Cl)c3)N2)ccc1-n1cnc(C)c1` (stereo not given): the concentration giving a half-maximal response (EC50) at Gamma-secretase was determined as 5 nM. In data set [5], this compound came in with a CL free of 20 mL/min/kg.

Turning to `COc1nc(C2=NOCC(c3ccc(C(F)(F)F)cc3)N2)ccc1-n1cnc(C)c1` (stereo not given), in data set [1], the Ratio was found to be 1.1. Also, the concentration for an effect of 90% (EC90) in data set [4] was 407 nM. Also, on Gamma-secretase, the EC50 was 34 nM. The CL free in data set [5] worked out at 12 mL/min/kg. Moreover, the Activity in the data set on Mus musculus was found to be 36%.

`COc1nc(C2=NOCC(c3ccc(C(F)(F)F)c(F)c3)N2)ccc1-n1cnc(C)c1` (stereo not given): the concentration for a half-maximal effect (EC50) on Gamma-secretase was 21 nM. For the same compound, in data set [5], the CL free was determined as 62 mL/min/kg.

Consider `COc1nc(C2=NOCC(c3ccc(Cl)c(Cl)c3)N2)ccc1-n1cnc(C)c1` (stereo not given), for which, in data set [1], the Ratio came out at 0.5. Besides, the EC90 in data set [4] amounted to 97 nM. The concentration giving a half-maximal response (EC50) on Gamma-secretase was 10 nM. Moreover, the Activity in the data set with Mus musculus is listed as 37%.

For `COc1nc(C2=NOCC(c3ccccc3)N2)ccc1-n1cnc(C)c1` (stereo in doubt; 7a), the 50% effective concentration (EC50) at Gamma-secretase worked out at 97 nM. In addition, the CL free in data set [5] came out at 21 mL/min/kg.

With `COc1nc(C2=NOCC(c3ccccc3)N2)ccc1-n1cnc(C)c1` (stereo in doubt; 7), the 50% effective concentration (EC50) on Gamma-secretase turned out to be 2000 nM.

As to `COc1nc(C2=NOCC(c3cccc(C#N)c3)N2)ccc1-n1cnc(C)c1` (stereo not given), on Gamma-secretase, the EC50 was 214 nM.

Consider `COc1nc(C2=NOCC(c3cccc(C4CC4)c3)N2)ccc1-n1cnc(C)c1` (stereo not given), for which the 50% effective concentration (EC50) on Gamma-secretase stood at 23 nM. This compound also displayed a CL free in data set [5] of 29 mL/min/kg.

As to `COc1nc(C2=NOCC(c3ccc(Cl)cc3)N2)ccc1-n1cnc(C)c1` (stereo not given), the Ratio in data set [1] turned out to be 0.6. The EC90 in data set [4] was 389 nM. Also, the EC50 at Gamma-secretase was 37 nM. This compound also returned a CL free in data set [5] of 2 mL/min/kg. Also, the Activity in the data set on Mus musculus came to 26%.

With `COc1nc(C2=NOCC(c3ccc(C(C)(C)C)cc3)N2)ccc1-n1cnc(C)c1` (stereo not given), at Gamma-secretase, the concentration giving a half-maximal response (EC50) stood at 10 nM. Also, the CL free in data set [5] was 320 mL/min/kg.

On to `COc1nc(C2=NOC(C)C(c3ccc(Cl)c(F)c3)N2)ccc1-n1cnc(C)c1` (stereo not given), for which the Ratio in data set [1] was 2.6; in data set [2], 2.4. The Activity in the data set with Rattus norvegicus [3] amounted to 44%; in the data set with Mus musculus, 43%; in the data set with Rattus norvegicus [6], 73%. For the same compound, in data set [4], the EC90 turned out to be 97 nM. On Gamma-secretase, the EC50 turned out to be 8 nM. For the same compound, the CL free in data set [5] was 1 mL/min/kg.
